Here are results for 4 molecules from patent publication US7682602B2, “Near-infrared fluorescent contrast medium” (Konica Minolta Medical & Graphic, Inc., priority 2003, dated 2010).

As usually defined, the solubility is the concentration that dissolves in the medium under given conditions.

A short description of data set [1]: Discharge in vitro of cyanine compound (urethra catheter, liquid chromatograph). The conditions noted are these: sum of discharge over one week after dosage; relative value, amount in vivo after dosage = 100. Also on record: species or system mouse. On the procedure:
Discharge in vitro of a cyanine compound of contrast medium material was determined by fitting a urethra with a catheter and summing up the discharge over one week after the dosage, and represented by a relative value, based on the amount in vivo of the cyanine compound after the dosage thereof being 100. The discharge of a cyanine compound was determined using liquid chromatograph 2010 (available from Shimazu Corporation).

Data set [2] is described as follows: Water-solubility test of compound in normal saline solution. The data set is classed as physicochemical. The conditions noted are these: saline or isotonic, thermodynamic from solid, 0.5 mg in 1 ml normal saline solution, 42° C., precipitation or deposits. As for the experimental part: In 1 ml of normal saline solution of an official grade was dissolved 0.5 mg of a dye (i.e., the cyanine compound to be tested) to make a solution.

The subject of data set [3] is tumor tissue of breast cancer mouse implanted in BALB/c nude mouse. Description: Fluorescent contrast imaging test in tumor-implanted nude mice. The arrangement: key: A: fluorescence was clearly observed in the tumor portion; B: fluorescence was also observed in the normal portion but the tumor portion was discernible; C: the normal portion and the tumor portion emitted slight fluorescence but the tumor portion was barely discernible; D: slight fluorescence was emitted overall and the tumor portion was not discernible from the normal portion; E: no fluorescence was observed. The data set is classed as in vivo. The conditions noted are these: 3 mg/kg through lactiferous duct and adenoid lobe; whole-body fluorescent imaging 30 min., 12 hr. and 24 hr. after dosage; fluorescence of tumor portion. As for the experimental part:
Model mice having breast cancer were prepared by dosing a carcinogene, 7,12-dimethylbenz[a]anthracene (DMBA) to an acceleratedly aged mice, SAMP6/Ta type mouse as one system of a so-called SAM type to cause breast cancer. Carcinogenesis was carried out in accordance with the description of JP-A No. 2003-033125. To each of 20 SAMP6/Ta type mice, DMBA was dosed in an amount of 0.5 mg/mouse·week, a total of six times. Solid high-protein, high-calorie CA-1 (available from CLEA Japan Inc.) was fed to the mice. After completion of the 6th dose of the carcinogenic substance, the dosage was stopped until the 20th month calculated from the 1st month. Breast cancer and lung metastasis were examined in the manner of pathologic histology.
A segment (2 mm×2 mm square) of tumor tissue of the foregoing breast cancer mouse was implanted below the skin of the breast in the left chest of a BALB/c nude mouse (5 weeks old, CLEA Japan Inc.). After 10 days, when the tumor has grown up to a diameter of approximately 5 mm, the foregoing mice were subjected to the fluorescent contrast imaging test. A titanium/sapphire laser was used as an exciting light source. The test mice in a darkened box were uniformly exposed to laser light using a ring-type light guide (available from Sumita Optical Glass Inc.) so that the dispersion of exposure fell within 2%. The irradiation output was adjusted so as to be about 38 μW/cm^2 near the skin surface of the mice. Fluorescence was emitted by excitation at the absorption peak wavelength of the respective compounds and fluorescent radiation from the mice was subjected to detection and imaging by using a CCD camera (C4880, produced by Hamamatsu Photonics K.K.) together with a filter to cut reflection of incident light at the shorter wavelength side. The exposure time was adjusted in accordance with the fluorescence intensity of the respective compounds. As to the tumor portion, the image obtained by attaching a marker onto the skin surface and observing it under white light was superposed onto the image obtained by removing the marker, followed by exposure to a laser light in the dark and evaluation was made with respect to fluorescence emitted from the tumor portion.
Each of the test compounds shown in Table 1 was dissolved in a normal saline solution (at 0.5 mg/ml) and dosed to the mice through a lactiferous duct and an adenoid lobe. The dose was 3 mg/kg for the respective test compounds. […]

As to `CC12CCC(/C=C/C=C/C=C3\CCC4(C)C3=[N+](CC(O)CS(=O)(=O)[O-])c3cccnc34)=C1N(CC(O)CS(=O)(=O)O)c1cccnc12` (stereo not drawn) [Compound 12], the “Discharge in vitro (%)” value in data set [1] is given as 99.0%. Further, in data set [2], the solubility at 1 week is > 500 µg/mL. Also, the “Contrast Imaging” value in data set [3] is “A”.

For the molecule `CC12CCC(/C=C/C=C/C3=CC(=C4\CCC5(C)C4=[N+](CC(O)CS(=O)(=O)O)c4ccc(S(=O)(=O)[O-])cc45)/CCC3)=C1N(CC(O)CS(=O)(=O)O)c1ccc(S(=O)(=O)O)cc12` (stereo not drawn) [Compound 37], the “Discharge in vitro (%)” value in data set [1] worked out at 99.0%. Also, in data set [2], the solubility at 1 week was > 500 µg/mL. The “Contrast Imaging” value in data set [3] is reported as “A”.

In the case of `CC1(C)C(/C=C/C=C/C=C/C=C2/N(CCCCS(=O)(=O)[O-])c3ccc4ccccc4c3C2(C)C)=[N+](CCCCS(=O)(=O)[O-])c2ccc3ccccc3c21.[Na+]` [Compound C-1, indoaniline green], the “Discharge in vitro (%)” value in data set [1] was 99.0%. For the same molecule, the solubility at 1 week in data set [2] was < 500 µg/mL. Moreover, the “Contrast Imaging” value in data set [3] is “C”.

Consider `CC1(C)C(/C=C/C=C/C=C/C=C2/N(CCCCS(=O)(=O)O)c3ccc4cc(S(=O)(=O)O)cc(S(=O)(=O)[O-])c4c3C2(C)C)=[N+](CCCCS(=O)(=O)O)c2ccc3cc(S(=O)(=O)O)cc(S(=O)(=O)O)c3c21` [Compound C-2], for which the “Discharge in vitro (%)” value in data set [1] amounted to 97.0%. Moreover, in data set [2], the solubility at 1 week is > 500 µg/mL. For the same molecule, the “Contrast Imaging” value in data set [3] is “B”.
